Results reported in patent EP0728012B1, “NOVEL GnRH ANALOGUES WITH ANTITUMOUR EFFECTS AND PHARMACEUTICAL COMPOSITIONS THEREOF” (Lovas, Sandor, priority 1994, dated 1996).
Non-standard residues stand in square brackets, D forms with d. Residues, ends and D or L forms follow the SMILES beside them. dPhe(4-Cl) = N[C@H](Cc1ccc(Cl)cc1)C(=O)O; pGlu = O=C1CC[C@@H](C(=O)O)N1

Columns and labels:
[1] = test system: Ishikawa human endometrium carcinoma cell line; test: Inhibition of colony formation (dose-survival relation, Example 18); assay type: cell-based; conditions: 50 µM
Method: (§1) In the case of cytostatics the cell-damaging effect is not cell-specific. […] One part of the arrested cells again go into the cycle, the other part may perish (apoptosis). […] The investigations were carried out on MCF-7 and MDA-MB-231 human mammary carcinoma cell lines, PC3 human prostate 15 carcinoma cell line and Ishikawa human endometrium carcinoma cell line. Three hundred cells were set into Petri dishes of 3.5 cm in diameter each. The treatment was carried out once, 24 hours following the explantation, then the colonies formed were counted after 9 to 12 days.

[2] = test system: MCF-7 human mammary carcinoma cell line; test: as above; assay type: cell-based; conditions: 50 µM (active substance), treated once
Method: as §1

[3] = test system: MDA-MB-231 human mammary carcinoma cell line; test: as above; assay type: cell-based; conditions: 50 µM
Method: as §1

[4] = test system: PC3 human prostate carcinoma cell line; test: as above; assay type: cell-based; conditions: 50 µM
Method: as §1

Ishikawa = conditions: 30 µM, peptide alone, two treatments on days 2 and 4
Method: The procedure of treatment was as follows. After trypsinization the cells, 400,000 cells of MCF-7, MDA-MB-231 human mammary carcinoma, PC3 human prostate carcinoma or Ishikawa human endometrium tumour each were passed into Petri dishes of 10 cm in diameter. Starting from the day following transfer, the cells were treated with the substances to be tested in solution prepared with the nutrient medium during the exponential growth phase. The cultures were treated with 1 to 50 µM (calculated for the total volume of the culture) or MI-1544 GnRH antagonist, MI-1892 chicken GnRH antagonist or SJ-1004 GnRH […] on the 7th day.

PC3 = test: In vitro inhibition of cell proliferation (Example 19); assay type: cell-based, human; conditions: 30 µM, peptide alone, two treatments on days 2 and 4
Method: The procedure of treatment was as follows. After trypsinization the cells, 400,000 cells of MCF-7, MDA-MB-231 human mammary carcinoma, PC3 human prostate carcinoma or Ishikawa human endometrium tumour each were passed into Petri dishes of 10 cm in diameter. Starting from the day following transfer, the cells were treated with the substances to be tested in solution prepared with the nutrient medium during the exponential growth phase. The cultures were treated with 1 to 50 µM (calculated for the total volume of the culture) or MI-1544 GnRH antagonist, MI-1892 chicken GnRH antagonist or SJ-1004 GnRH antagonist analogues as well as synthetic lamprey GnRH-III hormone every two days and the cell count was determined on the 7th day.

MXT mouse mammary tumour = test: In vivo antitumour effect on mice bearing MXT mouse mammary tumour; parameters: species or system CBA/Ca mice
Method: The MXT mouse mammary carcinoma contains ER and PgR proteins; furthermore, it contains also GnRH receptors; therefore, this in vivo tumour model is suitable for studying both the direct and indirect effects. The treatment of mice bearing MXT mammary tumour was commenced on the day following transplantation. […] Table VI The animals were daily treated in s.c. route starting from the day following transplantation of MXT mouse mammary tumour. […] MI-1544: 75 µg/day/animal; MI-1892: 75 µg/day/animal.

MCF-7 = MCF-7 (10% FCS); 30 µM; peptide alone, treated every two days (two treatments, days 2 and 4)
Method: (§2) The procedure of treatment was as follows. After trypsinization the cells, 400,000 cells of MCF-7, MDA-MB-231 human mammary carcinoma, PC3 human prostate carcinoma or Ishikawa human endometrium tumour each were passed into Petri dishes of 10 cm in diameter. Starting from the day following transfer, the cells were treated with the substances to be tested in solution prepared with the nutrient medium during the exponential growth phase. […]

MDA-MB-231 = MDA-MB-231 (10% FCS); 30 µM; peptide alone, treated every two days (two treatments)
Method: as §2

[5] = MXT mouse mammary tumour, Treatment weeks: 13, 1x75 µg daily s.c.
[6] = MXT mouse mammary tumour, Treatment weeks: 20, 1x75 µg daily s.c.

`CC(=O)N[C@H](Cc1c[nH]c2ccccc12)C(=O)N[C@H](Cc1ccc(Cl)cc1)C(=O)N[C@H](Cc1c[nH]c2ccccc12)C(=O)N[C@@H](CO)C(=O)N[C@@H](Cc1ccc(O)cc1)C(=O)N[C@H](CCCCN)C(=O)N[C@@H](CC(C)C)C(=O)N[C@@H](CCCNC(=N)N)C(=O)N1CCC[C@H]1C(=O)N[C@H](C)C(N)=O` [MI-1544, Ac-D-Trp^1,3,D-Cpa^2,D-Lys^6,D-Ala^10-hGnRH, reference compound] (Ac-[dW][dPhe(4-Cl)][dW]SY[dK]LRP[dA]-NH2) was tested, and the “% Inhibition of colony formation” value [1] was 5%, the “% Inhibition of colony formation” value [2] was 45% and the “% Inhibition of colony formation” value [3] was 20%. The “% Inhibition of colony formation” value [4] was 20%, the inhibition of proliferation (Ishikawa) was 8% and the inhibition of proliferation (PC3) was 24%. The Inhibition % (MXT mouse mammary tumour; [5]) was 46%, the “Tumour volume as control (%)” value (MXT mouse mammary tumour; [5]) was 54% and the Inhibition % (MXT mouse mammary tumour; [6]) was 46%. For the same molecule, the “Tumour volume as control (%)” value (MXT mouse mammary tumour; [6]) was 54%, the “Tumour volume (cm^3)” value (MXT mouse mammary tumour; day 9, 75 µg/day/animal s.c.) was 0.44 cm^3 and the “Tumour volume as control (%)” value (MXT mouse mammary tumour; day 9, 75 µg/day/animal s.c.) was 63%. For the same molecule, the “Tumour volume (cm^3)” value (MXT mouse mammary tumour; day 11, 75 µg/day/animal s.c.) was 1.03 cm^3, the “Tumour volume as control (%)” value (MXT mouse mammary tumour; day 11, 75 µg/day/animal s.c.) was 57% and the “Tumour volume (cm^3)” value (MXT mouse mammary tumour; day 13, 75 µg/day/animal s.c.) was 1.74 cm^3. For the same molecule, the “Tumour volume as control (%)” value (MXT mouse mammary tumour; day 13, 75 µg/day/animal s.c.) was 54%, the “Tumour volume (cm^3)” value (MXT mouse mammary tumour; day 17, 75 µg/day/animal s.c.) was 2.63 cm^3 and the “Tumour volume as control (%)” value (MXT mouse mammary tumour; day 17, 75 µg/day/animal s.c.) was 51%. The “Tumour volume (cm^3)” value (MXT mouse mammary tumour; day 18, 75 µg/day/animal s.c.) was 3.94 cm^3, the “Tumour volume as control (%)” value (MXT mouse mammary tumour; day 18, 75 µg/day/animal s.c.) was 53% and the “Tumour volume (cm^3)” value (MXT mouse mammary tumour; day 20, 75 µg/day/animal s.c.) was 5.02 cm^3. For the same molecule, the “Tumour volume as control (%)” value (MXT mouse mammary tumour; day 20, 75 µg/day/animal s.c.) was 54%, the “Tumour volume (cm^3)” value (MXT mouse mammary tumour; day 24, 75 µg/day/animal s.c.) was 6.08 cm^3 and the “Tumour volume as control (%)” value (MXT mouse mammary tumour; day 24, 75 µg/day/animal s.c.) was 48%. For the same molecule, the “Tumour volume (cm^3)” value (MXT mouse mammary tumour; day 26, 75 µg/day/animal s.c.) was 8.42 cm^3 and the “Tumour volume as control (%)” value (MXT mouse mammary tumour; day 26, 75 µg/day/animal s.c.) was 60%.

With `CC(C)C[C@H](NC(=O)[C@@H](CCCCN)NC(=O)[C@H](Cc1ccc(O)cc1)NC(=O)[C@H](CO)NC(=O)[C@@H](Cc1c[nH]c2ccccc12)NC(=O)[C@@H](Cc1ccccc1)NC(=O)[C@@H]1CCC(=O)N1)C(=O)N[C@@H](CCCNC(=N)N)C(=O)N1CCC[C@H]1C(=O)NCC(N)=O` [SJ-1004, D-Phe^2,D-Trp^3,D-Lys^6-hGnRH, reference compound] ([pGlu][dF][dW]SY[dK]LRPG-NH2) the “% Inhibition of colony formation” value [1] was 5%, the “% Inhibition of colony formation” value [2] was 31% and the “% Inhibition of colony formation” value [3] was 26%. The “% Inhibition of colony formation” value [4] was 0%, the “inhibition of proliferation (decrease in cell count)” value (MCF-7) was 17% and the “inhibition of proliferation (decrease in cell count)” value (MDA-MB-231) was 23%. It also gave an inhibition of proliferation (PC3) of 10%.
